From ChEMBL document CHEMBL5360538, “Recent updates on 1,2,3-triazole-containing hybrids with in vivo therapeutic potential against cancers: A mini-review” (Eur J Med Chem, 2023)

Columns and labels:
[1] = test system: B16-F10; assay: Antitumor activity against mouse B16-F10 cells implanted in melanoma mouse model assessed as inhibition of tumor growth at 20 mg/kg, po relative to control; format: functional
[2] = test system: A549; assay: Antitumor activity against human A549 cells xenografted in zebrafish model assessed as reduction in tumor focal area at 2.5 uM relative to control; format: functional; design: scale not given: the % may be the effect or the level left
[3] = test system: MDA-MB-231; assay: Antiproliferative activity against human MDA-MB-231 cells assessed as inhibition of cell growth incubated for 48 hrs by MTT assay; format: functional, cell-based; settings: MDA-MB-231, 48 h
[4] = test system: Ehrlich; assay: Antitumor activity against mouse EAC cells implanted in Swiss albino mouse assessed as tumor growth inhibition at 5.0 mg/kg, ip administered alternate days for 10 days relative to control; format: functional; settings: 240 h, time 10 day, read-out: TGI
[5] = test system: NCI-H211; assay: Antiproliferative activity against human NCI-H211 cells assessed as reduction in cell viability by MTS assay; format: functional, cell-based
[6] = test system: MDA-MB-231; assay: Antiproliferative activity against human MDA-MB-231 cells assessed as reduction in cell viability by MTS assay; format: functional, cell-based
[7] = test system: MCF7; assay: Antiproliferative activity against drug-sensitive human MCF7 cells assessed as inhibition of cell growth by MTT assay; format: functional, cell-based
[8] = test system: MDA-MB-231; assay: Antiproliferative activity against drug-sensitive human MDA-MB-231 cells assessed as inhibition of cell growth by MTT assay; format: functional, cell-based
[9] = test system: BT-474; assay: Antiproliferative activity against drug-sensitive human BT-474 cells assessed as inhibition of cell growth by MTT assay; format: functional, cell-based
[10] = test system: SK-BR-3; assay: Antiproliferative activity against drug-sensitive human SK-BR-3 cells assessed as inhibition of cell growth by MTT assay; format: functional, cell-based
[11] = Antiproliferative activity against human Tamoxifen-resistant MCF7 cells assessed as inhibition of cell growth by MTT assay; format: functional, cell-based
[12] = Antiproliferative activity against human Trastuzumab-resistant BT-474 cells assessed as inhibition of cell growth by MTT assay; format: functional, cell-based, Trastuzumab-resistant BT-474 cell
[13] = Elimination half life in Albino mouse plasma at 1.0 mg/kg, iv; format: ADME, organism-based; settings: read-out: beta t1/2 (converted)
[14] = Plasma clearance in Albino mouse at 1.0 mg/kg, iv; format: ADME, organism-based
[15] = AUC(0 to t) in Albino mouse at 1.0 mg/kg, iv; format: ADME, organism-based; design: dose 1 mg/kg, route iv; settings: in vivo
[16] = test system: MCF7; assay: Antitumor activity against human MCF7 cells xenografted in mouse assessed as tumor growth inhibition by measuring T/C ratio at 25 mg/kg, iv; format: functional
[17] = test system: Ehrlich; assay: Antitumor activity against mouse EAC cells implanted in Swiss albino mouse model assessed as tumor growth inhibition at 10 mg/kg, ip administered each day for 9 days and measured after 14 days relative to control; format: functional; settings: 336 h, time 14 day
[18] = test system: Ehrlich; assay: Antitumor activity against mouse EAC cells implanted in Swiss albino mouse model assessed as increase in life span at 10 mg/kg, ip administered each day for 9 days and measured after 14 days relative to control; format: functional; settings: time 14 day
[19] = test system: A549; assay: Antiproliferative activity against human A549 cells assessed as inhibition of cell growth incubated for 72 hrs by MTT assay; format: functional, cell-based; settings: A549, 72 h
[20] = test system: HCT-116; assay: Antiproliferative activity against human HCT-116 cells assessed as inhibition of cell growth incubated for 72 hrs by MTT assay; format: functional, cell-based; settings: HCT-116, 72 h
[21] = test system: U2OS; assay: Antiproliferative activity against human U2OS cells assessed as inhibition of cell growth incubated for 72 hrs by MTT assay; format: functional, cell-based
[22] = test system: A549/TR; assay: Antiproliferative activity against taxol-resistant human A549/Taxol cells assessed as inhibition of cell growth incubated for 72 hrs by MTT assay; format: functional, cell-based
[23] = Antiproliferative activity against cisplatin-resistant human A549/DDP cells assessed as inhibition of cell growth incubated for 72 hrs by MTT assay; format: functional, cell-based
[24] = test system: A549; assay: Antitumor activity against human A549 cells xenografted in Kunming mouse model assessed as inhibition of tumor growth at 20 mg/kg, iv administered twice daily for 2 weeks relative to control; format: functional; settings: A549, 336 h
[25] = test system: OC-314; assay: Antiproliferative activity against human OC-314 cells assessed as reduction in cell viability by MTT assay; format: functional, cell-based
[26] = test system: OVCAR-8; assay: Antiproliferative activity against human OVCAR-8 cells assessed as reduction in cell viability by MTT assay; format: functional, cell-based
[27] = test system: SK-OV-3; assay: Antiproliferative activity against human SK-OV-3 cells assessed as reduction in cell viability by MTT assay; format: functional, cell-based
[28] = test system: Caov-3 cell line; assay: Antiproliferative activity against human Caov-3 cells assessed as reduction in cell viability by MTT assay; format: functional, cell-based
[29] = test system: OVCAR-8; assay: Antitumor activity against human OVCAR-8 cells xenografted in nude mouse assessed as inhibition of tumor growth at 100 mg/kg, IG administered daily for 21 days relative to control; format: functional; settings: OVCAR-8, po, 504 h, time 21 day
[30] = test system: PC-9; assay: Antitumor activity against human PC-9 cells xenografted in NSG mouse model assessed as inhibition of tumor growth at 25 mg/kg, ip qd administered every day for 7 consecutive days relative to control; format: functional; settings: PC-9, 168 h, time 7 day
[31] = test system: 4T1; assay: Antitumor activity against mouse 4T1 cells overexpressing IDO1 implanted in BALB/c mouse model assessed as inhibition of tumor growth at 25 mg/kg, ip qd administered every day for 8 consecutive days and measured after 14 days relative to control; format: functional; settings: 4T1, 336 h, time 14 day
[32] = test system: MDA-MB-231; assay: Antiproliferative activity against human MDA-MB-231 cells assessed as inhibition of cell growth incubated for 120 hrs by MTT assay; format: functional
[33] = Inhibition of Rac activation in human MDA-MB-231 cells treated for 24 hrs by Western blot analysis; format: cell-based
[34] = test system: MDA-MB-435; assay: Antitumor activity against GFP tagged bone metastatic variant of human MDA-MB-435 cells xenografted in athymic nu/nu mouse assessed as reduction in tumor growth at 1 mg/kg, ip administered thrice a week for 65 days relative to control; format: functional; design: scale not given: the % may be the effect or the level left; settings: time 65 day
[35] = test system: MDA-MB-435; assay: Antitumor activity against GFP tagged bone metastatic variant of human MDA-MB-435 cells xenografted in athymic nu/nu mouse assessed as reduction in tumor growth at 10 mg/kg, ip administered thrice a week for 65 days relative to control; format: functional; design: scale not given: the % may be the effect or the level left; settings: time 65 day
[36] = test system: MGC-803; assay: Antitumor activity against human MGC-803 cells xenografted in SCID mouse model assessed as inhibition of tumor growth at 50 mg/kg, po relative to control; format: functional

C/C(=C(/Cl)c1ccccc1)c1nnc(-c2cn(CCCOc3ccc(C(C)(C)C)cc3)nn2)o1
inhibition in vivo at 20 mg/kg [1]: 90%

COc1cc2ncnc(Nc3ccc(F)c(Cl)c3)c2cc1OCCCN1CCOCC1 [GEFITINIB]
Activity [2]: 18.95%

NS(=O)(=O)NCCNC(=O)c1n[nH]nc1-c1ccc(F)c(F)c1
IC50 [3]: 77 nM
inhibition in vivo at 5 mg/kg [4]: > 80%

Cc1nnn(C)c1-c1cnc2c3cc4cnn(C)c4cc3n([C@H](c3ccccc3)C3CCOCC3)c2c1
IC50 [5]: 1.99 nM
IC50 [6]: 1.58 nM

CCN1CCN(Cc2ccc(Nc3ncc(F)c(-c4cc(F)c5nc(C)n(C(C)C)c5c4)n3)nc2)CC1 [ABEMACICLIB]
IC50 [7]: 153 nM
IC50 [8]: 153 nM
IC50 [9]: 153 nM
IC50 [10]: 153 nM
IC50 [11]: 153 nM
IC50 [12]: 153 nM
half-life [13]: 1 h
clearance [14]: 43 mL/min/kg
AUC(0-t) [15]: 487 ng·h/mL
T/C [16]: 0.51

COc1ccc(-c2ccc3c(c2)OCC(=O)N3Cc2cn(-c3cc(Cl)cc(Cl)c3)nn2)cc1
inhibition in vivo at 10 mg/kg [17]: 54%
Activity [18]: 68.94%

CC(C)=CC[C@]12OC(C)(C)C3C[C@H](C=C4C(=O)c5c(OCc6cn(CCN7CCOCC7)nn6)cccc5OC431)C2=O
IC50 [19]: 280 nM
IC50 [20]: 280 nM
IC50 [21]: 280 nM
IC50 [22]: 280 nM
IC50 [23]: 280 nM
inhibition in vivo at 20 mg/kg [24]: 71.3%

O=S(=O)(NCc1cn(Cc2cccc(Oc3ccccc3)c2)nn1)c1ccc(F)cc1
IC50 [25]: 540 nM
IC50 [26]: 540 nM
IC50 [27]: 540 nM
IC50 [28]: 540 nM
inhibition in vivo at 100 mg/kg [29]: 61.8%

C#Cc1cccc(Nc2ncnc3cc(OCCOC)c(OCCOC)cc23)c1 [ERLOTINIB]
inhibition in vivo at 25 mg/kg [30]: 90%
inhibition in vivo at 25 mg/kg [31]: 36%

CCn1c2ccccc2c2cc(-n3nncc3-c3ccccc3)ccc21 [MBQ-167]
GI50 [32]: 130 nM
IC50 [33]: 103 nM
Activity [34]: 80%
Activity [35]: 95%

COc1ccc(-n2cc(CN3c4ccccc4Sc4ccccc43)nn2)c([N+](=O)[O-])c1
inhibition in vivo at 50 mg/kg [36]: 70.1%
